Patent US20240316136A1, “ANESTHETIC METHOD OF SPOTTED SEABASS WITH PLANT ESSENTIAL OILS” (Shanghai Ocean University, priority 2024, published 2024)

Key:
Format in all cases: in vivo, Lateolabrax maculatus
spotted seabass [1] = test: Oxidative stress indicators (SOD, CAT, GSH-Px) in blood
Procedure: (§1) In accordance with the principles and guiding regulations established by the Animal Protection and Utilization Committee of Shanghai Ocean University (SHOU-DW-2022-059), 200 mg/L MS-222 was used to anesthetize fish. Venous-arterial blood samples were obtained from the caudal vein using a 1 mL syringe with 10% EDTA as an anticoagulant and then preserved in anticoagulation tubes. In addition, another portion of the blood was collected without anticoagulant, then kept at 4° C. for a duration of 12 hours for stationary. The coagulated blood was centrifuged at 4000×g for 20 min at 4° C. The serum was extracted and placed in the refrigerator at −40° C. for testing.
Superoxide Dismutase (SOD), Catalase (CAT) and Glutathione Peroxidase (GSH-Px) kits (Nanjing Jiancheng Bioengineering Institute, Nanjing, China) were used to determine SOD, CAT and GSH-Px activities in blood.

spotted seabass [2] = test: Immunological indicators (ACP/AKP, IgM, LZM) in serum
Procedure: as §1
(§2) Acid phosphatase (ACP), glucose (GLU) and lactic acid (LD) kits (Nanjing Jiancheng Bioengineering Institute, Nanjing, China) were used to measure ACP, GLU and LD levels.
Lysozyme (LZM) activity was determined by the method of De Souza et al. Serum immunoglobulin M (IgM) concentration was measured using a fish ELISA kit (Nanjing Jiancheng Bioengineering Institute, Nanjing, China).

spotted seabass [3] = test: Energy metabolism indexes (glucose, lactic acid); details: after anesthesia; comparison between anesthetic groups, P<0.05
Procedure: as §1, §2

[4] = test system: spotted seabass gill tissue; test: Gill tissue histopathology by light microscope after anesthesia
Procedure: • 1. Healthy spotted seabass with uniform sizes and uniform respiration rates were selected and acclimated for 24 h. During the acclimatization period, the water temperature was 22±1° C., the salinity was 16%, the dissolved oxygen was 6 mg/L, pH was 7.5, and the fish-water ratio was 1:50. The metabolic wastes of the spotted seabass were discharged during acclimatization period. • 2. The emulsified Cinnamomum camphora essential oils were added to the aquariums respectively. The water temperature was controlled at 22±1° C. The concentrations of the emulsified Cinnamomum camphora essential oil were 10, 20, 30, 50, 100, 150, 200 mg/L, respectively, and the same concentrations of MS-222 anesthesia solution and linalool solution were prepared at the same time. • 3. The spotted seabass were transferred to aquariums (5 fish per aquarium) with different concentrations of the Cinnamomum camphora essential oil, MS-222 and linalool anesthetics, and anesthetic concentrations, sedation concentrations and duration of anesthesia were recorded for the spotted seabass. • 4. The fish were extracted once deep anesthesia was achieved. Recovery was defined as the restoration of fish to their typical swimming behavior; the resuscitation time of the spotted seabass were recorded. • 5. The optimal concentration range was obtained, and oxidative stress and tissue injury were measured. […]

spotted seabass [5] = test: Blood biochemical analysis (RBC, HCT, HGB)
Procedure: as §1
Red blood cell count (RBC), haematocrit (HCT), and hemoglobin (HGB) in blood samples were measured in a Myriad Veterinary Automatic Blood Cell Analyser (BC-2800vet, Shenzhen, China).

spotted seabass [6] = test: Sedation, anesthesia induction and resuscitation time of spotted seabass in anesthetic bath; design: key to Stage IV (deep anesthesia) time / Resuscitation time / Stage I (light sedation) time / Stage II (deep sedation) time / Stage III (light anesthesia) time: —: No anesthetic effect
Procedure: • 1. Healthy spotted seabass with uniform sizes and uniform respiration rates were selected and acclimated for 24 h. During the acclimatization period, the water temperature was 22±1° C., the salinity was 16%, the dissolved oxygen was 6 mg/L, pH was 7.5, and the fish-water ratio was 1:50. The metabolic wastes of the spotted seabass were discharged during acclimatization period. • 2. The emulsified Cinnamomum camphora essential oils were added to the aquariums respectively. The water temperature was controlled at 22±1° C. […] The spotted seabass were transferred to aquariums (5 fish per aquarium) with different concentrations of the Cinnamomum camphora essential oil, MS-222 and linalool anesthetics, and anesthetic concentrations, sedation concentrations and duration of anesthesia were recorded for the spotted seabass. • 4. The fish were extracted once deep anesthesia was achieved. Recovery was defined as the restoration of fish to their typical swimming behavior; the resuscitation time of the spotted seabass were recorded. • 5. The optimal concentration range was obtained, and oxidative stress and tissue injury were measured. [table] One-way analysis of variance (ANOVA) was used to evaluate the data (anesthetic induction and recovery time) using SPSS 26.0 software (SPSS Inc., Chicago, IL, USA). The significant variation was determined using Duncan's multiple range test (P<0.05). Graphs were created using Origin software.

[7] = after 24 h of recovery, vs initial
[8] = after 24 h of recovery, vs initial values, p<0.05

Compound: CCOC(=O)c1cccc(N)c1.CS(=O)(=O)O [MS-222, tricaine methanesulfonate]
- CAT activity (spotted seabass [1]; [7]): recovered to the initial values
- SOD activity (spotted seabass [1]; [7]): recovered to the initial values
- SOD, CAT and GSH-Px activities (spotted seabass [1]; after anesthesia): increasing trend
- IgM concentration (spotted seabass [2]; after anesthesia): decreased
- LZM activity (spotted seabass [2]; after anesthesia, change from initial): decreased
- AKP activity (spotted seabass [2]; on exposure to anesthetic): increased
- Glucose concentration (spotted seabass [3]): Greater
- Gill tissue histopathological changes [4]: chloride cells underwent significant proliferation
- Percentage of hematocrit (spotted seabass [5]; [8]): lower
- Red blood cell count (RBC) (spotted seabass [5]; [8]): higher
- Percentage of hematocrit (spotted seabass [5]; after deep anesthesia, comparison between anesthetic groups, p<0.05): higher
- Hemoglobin concentration (spotted seabass [5]; in vivo): higher
- Red blood cell count (RBC) (spotted seabass [5]; in vivo): higher
- Resuscitation time (spotted seabass [6]; 5 mg/L in water): —
- Stage I (light sedation) time (spotted seabass [6]; 5 mg/L in water): —
- Stage II (deep sedation) time (spotted seabass [6]; 5 mg/L in water): —
- Stage III (light anesthesia) time (spotted seabass [6]; 5 mg/L in water): —
- Stage IV (deep anesthesia) time (spotted seabass [6]; 5 mg/L in water): —
- Resuscitation time (spotted seabass [6]; 10 mg/L in water): —
- Stage I (light sedation) time (spotted seabass [6]; 10 mg/L in water): 90.67 ± 2.08 s
- Stage II (deep sedation) time (spotted seabass [6]; 10 mg/L in water): —
- Stage III (light anesthesia) time (spotted seabass [6]; 10 mg/L in water): —
- Stage IV (deep anesthesia) time (spotted seabass [6]; 10 mg/L in water): —
- Resuscitation time (spotted seabass [6]; 20 mg/L in water): —
- Stage I (light sedation) time (spotted seabass [6]; 20 mg/L in water): 73.67 ± 5.86 s
- Stage II (deep sedation) time (spotted seabass [6]; 20 mg/L in water): 111.67 ± 2.08 s
- Stage III (light anesthesia) time (spotted seabass [6]; 20 mg/L in water): —
- Stage IV (deep anesthesia) time (spotted seabass [6]; 20 mg/L in water): —
- Resuscitation time (spotted seabass [6]; 30 mg/L in water): —
- Stage I (light sedation) time (spotted seabass [6]; 30 mg/L in water): 59.00 ± 3.00 s
- Stage II (deep sedation) time (spotted seabass [6]; 30 mg/L in water): 102.33 ± 2.52 s
- Stage III (light anesthesia) time (spotted seabass [6]; 30 mg/L in water): 122.67 ± 2.52 s
- Stage IV (deep anesthesia) time (spotted seabass [6]; 30 mg/L in water): —
- Resuscitation time (spotted seabass [6]; 50 mg/L in water): 217.00 ± 2.00 s
- Stage I (light sedation) time (spotted seabass [6]; 50 mg/L in water): 39.67 ± 2.52 s
- Stage II (deep sedation) time (spotted seabass [6]; 50 mg/L in water): 64.00 ± 3.61 s
- Stage III (light anesthesia) time (spotted seabass [6]; 50 mg/L in water): 83.00 ± 3.00 s
- Stage IV (deep anesthesia) time (spotted seabass [6]; 50 mg/L in water): 185.00 ± 4.36 s
- Resuscitation time (spotted seabass [6]; 100 mg/L in water): 240.00 ± 2.00 s
- Stage I (light sedation) time (spotted seabass [6]; 100 mg/L in water): 30.00 ± 3.00 s
- Stage II (deep sedation) time (spotted seabass [6]; 100 mg/L in water): 41.00 ± 4.58 s
- Stage III (light anesthesia) time (spotted seabass [6]; 100 mg/L in water): 70.67 ± 4.04 s
- Stage IV (deep anesthesia) time (spotted seabass [6]; 100 mg/L in water): 174.00 ± 4.58 s
- Resuscitation time (spotted seabass [6]; 150 mg/L in water): 290.33 ± 3.06 s
- Stage I (light sedation) time (spotted seabass [6]; 150 mg/L in water): 20.67 ± 2.52 s
- Stage II (deep sedation) time (spotted seabass [6]; 150 mg/L in water): 35.00 ± 2.00 s
- Stage III (light anesthesia) time (spotted seabass [6]; 150 mg/L in water): 63.00 ± 3.61 s
- Stage IV (deep anesthesia) time (spotted seabass [6]; 150 mg/L in water): 147.67 ± 2.52 s
- Resuscitation time (spotted seabass [6]; 200 mg/L in water): 349.33 ± 3.06 s
- Stage I (light sedation) time (spotted seabass [6]; 200 mg/L in water): 19.67 ± 2.52 s
- Stage II (deep sedation) time (spotted seabass [6]; 200 mg/L in water): 29.67 ± 2.52 s
- Stage III (light anesthesia) time (spotted seabass [6]; 200 mg/L in water): 55.33 ± 2.08 s
- Stage IV (deep anesthesia) time (spotted seabass [6]; 200 mg/L in water): 140.33 ± 2.08 s
- Optimal anesthetic concentration (spotted seabass [6]; criterion: induction in around 3 min and recovery within 5 min): 100 mg/L
- Concentration showing deep sedation (spotted seabass [6]; in vivo): 20 mg/L
- Concentration showing light anesthesia effect (Stage III) (spotted seabass [6]; in vivo): 30 mg/L
- Concentration showing light sedation effect (Stage I) (spotted seabass [6]; in vivo): 10 mg/L
- Minimum concentration required to achieve profound anesthesia (Stage IV) (spotted seabass [6]; in vivo, iv): 50 mg/L
